According to PMC8258697 (The Journal of Biological Chemistry, 2021):

Columns and labels:
PPARγ:RXRα heterodimer = molecular target: T1, PPARγ:RXRα heterodimer (Homo sapiens, UniProt P19793+P37231); test: PPARγ:RXRα heterodimer formation HTRF assay, sGFP-RXRα LBD titrated against biotinylated PPARγ LBD coupled to Tb-SA; assay type: binding
T1 construct: His10-tag with TEV site (N, cleaved yes); made in house; host or cells: E. coli T7 express (co-expressed with GroEL/ES)
T1 sequence (P37231 234-505): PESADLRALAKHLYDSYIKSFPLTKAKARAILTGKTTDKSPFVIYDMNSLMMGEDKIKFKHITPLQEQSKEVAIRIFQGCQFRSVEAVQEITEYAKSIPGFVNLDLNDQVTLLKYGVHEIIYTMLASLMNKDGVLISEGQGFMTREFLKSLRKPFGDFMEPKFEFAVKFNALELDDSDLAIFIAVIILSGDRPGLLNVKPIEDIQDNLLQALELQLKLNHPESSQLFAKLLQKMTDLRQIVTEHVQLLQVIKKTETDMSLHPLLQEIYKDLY
T1 sequence (P19793 226-462): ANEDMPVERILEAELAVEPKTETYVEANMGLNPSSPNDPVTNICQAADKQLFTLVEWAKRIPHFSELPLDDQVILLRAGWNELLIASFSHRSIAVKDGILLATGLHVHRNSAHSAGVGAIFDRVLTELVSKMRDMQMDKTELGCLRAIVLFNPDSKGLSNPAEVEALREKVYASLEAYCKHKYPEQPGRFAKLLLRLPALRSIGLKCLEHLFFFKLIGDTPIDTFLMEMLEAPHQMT

PPARγ LBD = molecular target: T2, PPARγ LBD (Homo sapiens, UniProt P37231); test: Monomer cofactor recruitment HTRF assay: CBP-1 recruitment by isolated sGFP-PPARγ LBD; assay type: biochemical; details: versus 1 μM Rosi
T2 construct: His10-tag with TEV site (N, cleaved yes); made in house; host or cells: E. coli T7 express (co-expressed with GroEL/ES)
T2 sequence (P37231 234-505): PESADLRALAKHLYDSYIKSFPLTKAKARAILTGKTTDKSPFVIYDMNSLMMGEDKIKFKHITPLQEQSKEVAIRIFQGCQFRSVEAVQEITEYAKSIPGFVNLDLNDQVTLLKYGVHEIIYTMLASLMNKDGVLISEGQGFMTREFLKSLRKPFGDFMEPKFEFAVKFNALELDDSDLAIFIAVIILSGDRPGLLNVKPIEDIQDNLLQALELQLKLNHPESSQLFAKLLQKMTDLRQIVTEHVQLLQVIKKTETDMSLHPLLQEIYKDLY

[1] = molecular target: T3, PPARγ LBD in complex with RXRα LBD (Homo sapiens, UniProt P37231); test: Heterodimer coactivator recruitment HTRF assay: CBP-1 recruitment by PPARγ LBD in complex with sGFP-RXRα LBD total mutant; assay type: biochemical
T3 construct: His10-tag with TEV site (N, cleaved yes); made in house; host or cells: E. coli T7 express (co-expressed with GroEL/ES)
T3 sequence (P37231 234-505): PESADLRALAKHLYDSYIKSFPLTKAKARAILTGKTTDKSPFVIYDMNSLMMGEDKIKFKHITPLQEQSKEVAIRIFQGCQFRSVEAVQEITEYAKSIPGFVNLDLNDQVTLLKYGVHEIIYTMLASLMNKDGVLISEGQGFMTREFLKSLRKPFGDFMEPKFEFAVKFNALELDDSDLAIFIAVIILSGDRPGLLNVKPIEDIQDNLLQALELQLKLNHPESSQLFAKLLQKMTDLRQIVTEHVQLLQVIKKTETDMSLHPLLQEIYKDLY
T3 sequence (P19793 226-462 V280T/K284E/V298T/F450Y/E453R partner limits assumed): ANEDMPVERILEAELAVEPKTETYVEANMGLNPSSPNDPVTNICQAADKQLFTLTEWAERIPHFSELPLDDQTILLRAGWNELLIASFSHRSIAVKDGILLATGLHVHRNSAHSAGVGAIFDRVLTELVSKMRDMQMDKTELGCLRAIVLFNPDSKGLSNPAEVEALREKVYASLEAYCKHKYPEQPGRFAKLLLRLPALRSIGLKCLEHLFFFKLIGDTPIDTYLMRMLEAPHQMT

PPARγ = details: cited from earlier work
RXRα homodimer = molecular target: T4, RXRα homodimer (Homo sapiens, UniProt P19793); test: RXRα homodimer formation HTRF assay, sGFP-RXRα LBD titrated against biotinylated RXRα LBD (wildtype); assay type: binding; details: 10 μM ligand compared with no ligand
T4 construct: His10-tag with TEV site (N, cleaved yes); made in house; host or cells: E. coli T7 express (co-expressed with GroEL/ES)
T4 sequence (P19793 226-462) 1: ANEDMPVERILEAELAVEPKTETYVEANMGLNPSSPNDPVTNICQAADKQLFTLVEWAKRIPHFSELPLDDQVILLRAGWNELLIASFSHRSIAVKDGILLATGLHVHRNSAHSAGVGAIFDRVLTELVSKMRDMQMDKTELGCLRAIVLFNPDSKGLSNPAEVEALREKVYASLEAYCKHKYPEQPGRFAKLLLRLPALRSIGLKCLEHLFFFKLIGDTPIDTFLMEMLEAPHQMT
T4 sequence (P19793 226-462) 2: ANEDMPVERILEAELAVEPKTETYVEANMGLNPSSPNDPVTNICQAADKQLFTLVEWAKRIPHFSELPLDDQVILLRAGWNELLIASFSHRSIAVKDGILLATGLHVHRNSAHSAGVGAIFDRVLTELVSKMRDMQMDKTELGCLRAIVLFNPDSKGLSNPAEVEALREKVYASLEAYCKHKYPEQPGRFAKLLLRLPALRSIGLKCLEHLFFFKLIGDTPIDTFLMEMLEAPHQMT

[2] = molecular target: T3, PPARγ LBD in complex with RXRα LBD; details: cited from earlier work
RXRα LBD wildtype = details: cited from earlier work

Compound: O=C(Nc1ccccc1)c1cc([N+](=O)[O-])ccc1Cl [GW9662]
- effect on PPARγ:RXRα heterodimer formation (PPARγ:RXRα heterodimer; 1 μM ligand compared with apo): did not affect heterodimer formation
- Monomer recruitment, antagonist mode, Max inhibition (%) (PPARγ LBD): 62%
- IC50 (PPARγ LBD; read-out: Monomer recruitment, antagonist mode, Potency (IC50)): 1.2 ± 0.07 µM
- Dimer recruitment, antagonist mode, Max inhibition (%) ([1]; versus 1 μM Rosi): 52%

Compound: O=S(=O)(Nc1cc(Cl)c(Oc2cnc3ccccc3c2)c(Cl)c1)c1ccc(Cl)cc1Cl [INT131]
- degree of activation of PPARγ compared with rosiglitazone (PPARγ): 30%

Compound: O=C(O)c1c(Sc2ccccc2)c2cc(Cl)ccc2n1Cc1ccccc1 [SR145]
- degree of activation of PPARγ compared with rosiglitazone (PPARγ): ~ 35%

Compound: O=C(O)Cc1cc(I)c(Oc2cc(I)c(O)c(I)c2)c(I)c1 [TETRAC, 3,3',5,5'-tetraiodothyroacetic acid]
- effect on PPARγ:RXRα heterodimer formation (PPARγ:RXRα heterodimer; 10 μM ligand compared with no ligand): strongly reduced the apparent Kd
- reduction in the apparent Kd of dimer formation (PPARγ:RXRα heterodimer; 10 μM ligand in comparison with dimethyl sulfoxide control): 4 fold
- effect on RXRα homodimer formation (RXRα homodimer): slightly but significantly weakened
- enhancement of CBP-1 recruitment in comparison with 1 μM rosiglitazone [2]: approximately 50%
- activation of RXRα in comparison with 1 μM SR11237 (RXRα LBD wildtype): below 10%
- EC50 (RXRα LBD wildtype; read-out: EC50 of activation of RXRα): ~10 µM

Compound: GW1929
- reduction of the apparent Kd of heterodimer formation (PPARγ:RXRα heterodimer; 1 μM ligand compared with apo): 3 fold
- change of EC50 in the heterodimer setting in comparison with monomeric PPARγ LBD [1]: about 2 fold
- Dimer recruitment, agonist mode, Efficacy (%) ([1]; normalized to rosiglitazone in the heterodimer): 118%
